Assay results taken from patent US20170107254A1, “Modified Antimicrobial Peptides” (priority 2014, published 2017).
Values after ≈ are worked out from the molar mass of the structure shown. Read-outs that look alike come from different tables or passages of the source.

Key:
[1] = in vitro; settings: human, A549 cells
Description: The cell lines A549 (Human Lung Adenocarcinoma Epithelial Cell Line) and HepG2 (Human Hepatocellular Carcinoma Cell Line) were purchased from ATCC. A549 cells were maintained in F-12K medium (Gibco) containing 10% foetal bovine serum (Life Technologies) and 1% penicillin/streptomycin (Life Technologies) and HepG2 cells were maintained in Dulbecco's modified eagles medium (Gibco) containing 10% foetal bovine serum (Life Technologies), penicillin/streptomycin (Life Technologies) and 1% 0.01 mg/ml human transferrin (Sigma). Both were incubated at 37° C. with 5% CO2 until cells reached >80% confluence before splitting or experimental use.
Before exposure to peptides, the plate was incubated at 37° C. with 5% CO2 overnight to allow cells adhere. […] Medium was removed from the plate containing cells and peptide dilutions were transferred to cells and incubated for a further 3 h at 37° C. with 5% CO2. Cytotoxicity was determined by LIVE/DEAD® Viability/Cytotoxicity kit (Invitrogen Life Technologies), a working solution of 2 μM calcein AM and 4 μM EthD-1 and in conjunction Alamar Blue at a final concentration of 10% was added to the wells. Cells without peptides were the negative control and 1% DMSO was the positive control. Cells were incubated for 3 h again at 37° C. with 5% CO2.

[2] = system: human red blood cells (hRBC); experiment: Haemolysis of human red blood cells; settings: at 2500 μg/ml, 3 h
Description: Peptides were tested for their haemolytic activity against human red blood cells (hRBC). Fresh hRBCs collected in BD Vacutainer® tubes with EDTA were rinsed 3 times with PBS (pH 7.4) by centrifugation for 10 min at 800 g and resuspended, 1 in 10 diluted with PBS. […] Release of haemoglobin was then calculated by transferring supernatant to a flat bottomed 96-well plate and measuring absorbance at 578 nm. hRBCs with no peptides added and H2O provided the controls.

[3] = system: C. albicans SC5314; type: cell-based
Description: 1×RPMI-1640 Buffered with Citrate Phosphate Buffer
Citrate phosphate buffer was prepared by mixing 0.1 M citric acid and 0.2 M dibasic sodium phosphate dodecahydrate in the proportions indicated in the Table 2 and the volume adjusted to 90 ml with dH2O.
pH buffered medium was prepared by dissolving 1.04 g RPMI-1640 premix powder in 10 ml citrate phosphate buffer. The volume was then adjusted to 40 ml with dH2O and the pH adjusted by addition of the acid or base. The volume was adjusted to 50 ml with dH2O. The medium was then filter sterilized by vacuum filtration through a 0.2 μm filter and stored at 4° C. and kept for up to 2 weeks.
The pH of RPMI-1640 was altered, using citrate phosphate buffer, to reflect the more acidic pH environment in the oral cavity. NP319 and NP377 were active against C. albicans SC5314 from pH 5.5-7.0 (Table 2). For all AMPs tested the optimum pH for activity was pH 5.5. NP377 maintained activity at 2 μg/ml from pH 5.5-7 with reduced activity at pH 5.

[4] = system: C. albicans SC5314; experiment: MIC in the presence of 10% sterile filtered human saliva; type: cell-based
Description: AMPs of the same sequence length were tested versus C. albicans SC5314 in the presence of 10% (v/v) filtered human saliva at pH 7.0. Positive control is 1×RPMI-1640+cells, no peptide. Data is expressed as percentage of the positive growth controls. Data is the mean±standard error of the mean. (n=3)
Determination of Minimum Inhibitory Concentration (MIC) in Presence of Sterile Filtered Saliva
To test if saliva protease could result in a reduction in AMP antifungal activity against C. albicans, antifungal susceptibility testing was conducted in the presence of 10% (v/v) sterile filtered human saliva.

| SMILES | CC50 at 3 h [1] [µg/mL] | Haemolysis RBCs % at 2500 [2] [%] | concentration at which activity was maintained ([3]; from pH 5.5-7) [µg/mL] | MIC50 ([3]; pH 4.5) [µg/mL] | MIC100 ([3]; pH 4.5) [µg/mL] | MIC50 ([3]; pH 5) [µg/mL] | MIC100 ([3]; pH 5) [µg/mL] | MIC50 ([3]; pH 5.5) [µg/mL] | MIC100 ([3]; pH 5.5) [µg/mL] | MIC50 ([3]; pH 6) [µg/mL] | MIC100 ([3]; pH 6) [µg/mL] | MIC50 ([3]; pH 6.5) [µg/mL] | MIC100 ([3]; pH 6.5) [µg/mL] | MIC50 ([3]; pH 7) [µg/mL] | MIC100 ([3]; pH 7) [µg/mL] | MIC100 ([4]; 10% (v/v) sterile filtered human saliva, pH 7.0) [µg/mL] | antifungal activity in the presence of filtered human saliva ([4]; filtered human saliva) |
| --- | --- | --- | --- | --- | --- | --- | --- | --- | --- | --- | --- | --- | --- | --- | --- | --- | --- |
| N=C(N)NCCC[C@H](NC(=O)[C@H](CCCNC(=N)N)NC(=O)[C@H](CCCNC(=N)N)NC(=O)[C@H](CCCNC(=N)N)NC(=O)[C@H](CCCNC(=N)N)NC(=O)[C@H](CCCNC(=N)N)NC(=O)[C@H](CCCNC(=N)N)NC(=O)[C@H](CCCNC(=N)N)NC(=O)[C@H](CCCNC(=N)N)NC(=O)[C@H](CCCNC(=N)N)NC(=O)[C@H](CCCNC(=N)N)NC(=O)[C@H](CCCNC(=N)N)NC(=O)[C@H](CCCNC(=N)N)NC(=O)[C@@H](N)CCCNC(=N)N)C(=O)O [Rx14] | > 2500 | 0 | – | – | – | – | – | – | – | – | – | – | – | – | – | – | – |
| N=C(N)NCCC[C@@H](N)C(=O)N[C@H](CCCNC(=N)N)C(=O)N[C@H](CCCNC(=N)N)C(=O)N[C@H](CCCNC(=N)N)C(=O)N[C@H](CCCNC(=N)N)C(=O)N[C@H](CCCNC(=N)N)C(=O)N[C@H](CCCNC(=N)N)C(=O)N[C@H](CCCNC(=N)N)C(=O)N[C@H](CCCNC(=N)N)C(=O)N[C@H](CCCNC(=N)N)C(=O)N[C@H](CCCNC(=N)N)C(=O)N[C@H](CCCNC(=N)N)C(=O)N[C@H](CCCNC(=N)N)C(=O)N[C@H](Cc1c[nH]cn1)C(=O)N[C@H](Cc1c[nH]cn1)C(N)=O [NP377, dRdRdRdRdRdRdRdRdRdRdRdRdRdHdH-CONH] | – | – | 2 | 32 (≈ 13.8 µM) | >64 | 4 (≈ 1.72 µM) | 8 (≈ 3.45 µM) | 1 (≈ 0.431 µM) | 2 (≈ 0.861 µM) | 2 (≈ 0.861 µM) | 2 (≈ 0.861 µM) | 2 (≈ 0.861 µM) | 2 (≈ 0.861 µM) | 2 (≈ 0.861 µM) | 4 (≈ 1.72 µM) | 2 | retain antifungal activity |
| CCCCCCCCCCCCCCCC(=O)N[C@@H](CCCNC(=N)N)C(=O)N[C@@H](CCCNC(=N)N)C(=O)N[C@@H](CCCNC(=N)N)C(=O)N[C@@H](CCCNC(=N)N)C(=O)N[C@@H](CCCNC(=N)N)C(=O)N[C@@H](CCCNC(=N)N)C(=O)N[C@@H](CCCNC(=N)N)C(=O)N[C@@H](CCCNC(=N)N)C(=O)N[C@@H](CCCNC(=N)N)C(=O)N[C@@H](CCCNC(=N)N)C(=O)N[C@@H](CCCNC(=N)N)C(=O)N[C@@H](CCCNC(=N)N)C(=O)O [C16-(Rx12)] | 30 (≈ 14.1 µM) | – | – | – | – | – | – | – | – | – | – | – | – | – | – | – | – |
